Test results as given in patent publication US20250179106A1, “Metal Bis(Imino) Aryl Compounds and Methods Thereof” (EXXONMOBIL CHEMICAL PATENTS INC., priority 2022, published 2025).

Test: Solubility of catalysts in alkane solvent
Format: physicochemical
Settings: ambient temperature (20-25° C.)
Procedure: General considerations: Solubility studies for all catalysts were performed using material as synthesized, unless otherwise noted. Solvents used were sparged with nitrogen (30-60 minutes) and dried over 3 Å mole sieves. Unless stated otherwise, all measurements were performed at ambient temperature (20-25° C.).
A measured mass of solvent was added to a known amount of catalyst. After stirring for at least 30 minutes or more, the resulting mixture was filtered. The filtrate was concentrated is to dryness, and the remaining catalyst was weighed to provide the mass of dissolved catalyst. Solubility was calculated using the formula below.
Alternatively, for mixtures prepared at a low concentration (<0.25 wt %) which remained heterogeneous (visible solids or murky), the value may be reported as being “less than” the calculated value.
Formula used to calculate solubility is listed below.

| SMILES | Solubility (wt %) (solvent pentane) | Solubility (wt %) (solvent isohexane) |
| --- | --- | --- |
| CCCC[Si](CCCC)(CCCC)CC(=Nc1c(C)ccc(Cl)c1C)c1cccc(C(C[Si](CCCC)(CCCC)CCCC)=Nc2c(C)ccc(Cl)c2C)n1.[Cl][Fe][Cl] [Catalyst 8] | 1.7 | – |
| CCCC[Si](CCCC)(CCCC)CC(=Nc1c(C)cc(Cl)cc1C)c1cccc(C(C[Si](CCCC)(CCCC)CCCC)=Nc2c(C)cc(Cl)cc2C)n1.[Cl][Fe][Cl] [Catalyst 7] | 2.6 | – |
| CCCC[Si](CCCC)(CCCC)CC(=Nc1c(C)cc(C)cc1Cl)c1cccc(C(C[Si](CCCC)(CCCC)CCCC)=Nc2c(C)cc(C)cc2Cl)n1.[Cl][Fe][Cl] [Catalyst 9] | 0.15 | – |
| CCCC[Si](CCCC)(CCCC)CC(=Nc1c(C)cccc1C)c1cccc(C(C[Si](CCCC)(CCCC)CCCC)=Nc2c(C)cccc2C)n1.[Cl][Fe][Cl] [Catalyst 3] | – | 4.2 |
